Measurements reported in patent publication US8410135B2, “4,5 dihydro-(1H)-pyrazole derivatives as cannabinoid CB1 receptor modulators” (Solvay Pharmaceuticals B.V., priority 2007, dated 2013).
Read-outs that look alike come from different tables or passages of the source.

Legend:
[1] = molecular target: T1, human CB1 receptors (Homo sapiens, UniProt P21554); experiment: In vitro cannabinoid-CB1 receptor (ant)agonism, [3H]-arachidonic acid release in CHO cells; format: cell-based
T1 construct: expressed in transfected cells; host or cells: CHO cells
T1 sequence (P21554 whole entry): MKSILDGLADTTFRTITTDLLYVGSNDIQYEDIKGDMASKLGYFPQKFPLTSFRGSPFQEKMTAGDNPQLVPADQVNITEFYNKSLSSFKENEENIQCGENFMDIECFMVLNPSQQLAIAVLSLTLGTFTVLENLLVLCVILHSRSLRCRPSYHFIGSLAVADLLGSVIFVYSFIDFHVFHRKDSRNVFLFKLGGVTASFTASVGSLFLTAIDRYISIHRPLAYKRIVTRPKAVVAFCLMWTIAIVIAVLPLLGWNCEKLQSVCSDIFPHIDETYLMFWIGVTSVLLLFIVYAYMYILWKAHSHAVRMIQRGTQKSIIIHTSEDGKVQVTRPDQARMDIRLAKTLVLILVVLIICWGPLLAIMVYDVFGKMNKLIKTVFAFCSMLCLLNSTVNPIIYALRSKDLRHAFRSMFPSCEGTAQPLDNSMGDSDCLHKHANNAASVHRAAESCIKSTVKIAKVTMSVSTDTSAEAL
Protocol: In vitro cannabinoid-CB1 receptor (ant)agonism was assessed with human CB1 receptors cloned in CHO cells. CHO cells were grown in a DMEM culture medium, supplemented with 10% heat-inactivated fetal calf serum. Medium was aspirated and replaced by DMEM, without fetal calf serum, but containing [^3H]-arachidonic acid and incubated overnight in a cell culture stove (5% CO2/95% air; 37° C.; water-saturated atmosphere). During this period [^3H]-arachidonic acid was incorporated in membrane phospholipids. On the test day, medium was aspirated and cells were washed three times using 0.5 ml DMEM, containing 0.2% BSA. CB1 agonist stimulation lead to activation of PLA2 followed by release of [^3H]-arachidonic acid into the medium. This CB1 agonist-induced release was concentration-dependently antagonized by CB1 receptor antagonists, such as rimonabant.

[2] = molecular target: T2, human cannabinoid CB1 receptors (Homo sapiens, UniProt P21554); experiment: In vitro affinity for cannabinoid-CB1 receptors ([3H]CP-55,940 radioligand binding, CHO cell membranes)
T2 construct: expressed in transfected cells
T2 sequence (P21554 whole entry): as above
Protocol: (§1) In vitro affinity for cannabinoid-CB1 receptors was determined using membrane preparations of CHO cells in which human cannabinoid CB1 receptors were stably transfected in conjunction with [^3H]CP-55,940 as radioligand. After incubation of a freshly prepared cell membrane preparation with the [^3H]-ligand, with or without addition of compounds of the invention, separation of bound and free ligand was performed by filtration over glassfiber filters. Radioactivity on the filter was measured by liquid scintillation counting.

[3] = molecular target: T3, human cannabinoid CB2 receptors (Homo sapiens, UniProt P34972); experiment: In vitro affinity for cannabinoid-CB2 receptors ([3H]CP-55,940 radioligand binding, CHO cell membranes)
T3 construct: expressed in transfected cells
T3 sequence (P34972 whole entry): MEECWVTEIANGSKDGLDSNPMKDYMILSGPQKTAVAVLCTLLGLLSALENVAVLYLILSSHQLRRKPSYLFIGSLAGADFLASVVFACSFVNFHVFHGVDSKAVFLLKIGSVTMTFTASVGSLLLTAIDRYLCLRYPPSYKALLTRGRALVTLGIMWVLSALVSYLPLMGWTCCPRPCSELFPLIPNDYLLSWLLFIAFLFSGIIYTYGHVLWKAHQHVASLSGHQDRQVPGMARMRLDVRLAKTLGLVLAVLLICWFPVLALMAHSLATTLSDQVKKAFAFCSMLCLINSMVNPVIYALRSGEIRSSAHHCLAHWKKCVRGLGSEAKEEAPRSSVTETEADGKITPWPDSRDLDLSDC
Protocol: as §1, with “cannabinoid-CB2 receptors:” for “cannabinoid-CB1 receptors”, “CB2” for “CB1”

[4] = membranes of CHO cells stably transfected with human CB1, radioligand [3H]CP-55,940, mean of at least three independent experiments, read-out: receptor binding Human CB1 [^3H]-CP-55,940 pKi (converted)
[5] = membranes of CHO cells stably transfected with human CB2, radioligand [3H]CP-55,940, mean of at least three independent experiments, read-out: receptor binding Human CB2 [^3H]-CP-55,940 pKi (converted)
[6] = human CB1 receptors cloned in CHO cells, [3H]-arachidonic acid release

Compound | EC50 ([1]; human CB1 receptors cloned in CHO cells, [3H]-arachidonic acid release, read-out: functional activity h-CB1 agonistic activity [^3H]-Arachidonic acid pEC50 (converted)) [nM] | Ki [2, 4] [nM] | Ki [3, 5] [nM] | EC50 [1] [nM] | Ki [2] [nM] | Ki [3] [nM] | functional activity h-CB1 agonistic activity [^3H]-Arachidonic acid pEC50 [1, 6]
CCCCC1=NN(C(=O)CC(C)CC(C)(C)C)C(C)(C)C1c1ccccc1 (mixture of isomers) [Compound 39, [3-(n-butyl)-5,5-dimethyl-4-phenyl-4,5-dihydro-(1H)-pyrazol-1-yl]-3,5,5-trimethylhexan-1-one] | 63.1 | 100 | 12.6 | – | – | – | –
CCCCC1=NN(C(=O)N[C@@H]2C[C@H]3CC[C@H]2C3)C(C)(C)C1c1ccccc1 (relative stereo) [Compound 19, N-(rel-exo-bicyclo[2.2.1]hept-2-yl)-3-(n-butyl)-5,5-dimethyl-4-phenyl-4,5-dihydro-(1H)-pyrazole-1-carboxamide] | – | – | – | 100 | 25.1 | 7.94 | –
CCCCC1=NN(C(=O)NC(C)(C)c2ccccc2)C(C)(C)C1c1ccccc1 (stereo not drawn) [Compound 1, N-(1-methyl-1-phenyl-ethyl)-3-(n-butyl)-5,5-dimethyl-4-phenyl-4,5-dihydro-(1H)-pyrazole-1-carboxamide] | – | 7.94 | 3.98 | – | – | – | 8.1
CCCCC1=NN(C(=O)N[C@H]2C[C@H]3CC[C@]2(C)C3(C)C)C(C)(C)C1c1ccccc1 (stereo partly drawn) [Compound 2, N-[Endo-(1R,2S,4R)-1,7,7-trimethylbicyclo[2.2.1]hept-2-yl]-3-(n-butyl)-5,5-dimethyl-4-phenyl-4,5-dihydro-(1H)-pyrazole-1-carboxamide] | – | – | – | – | 12.6 | 3.98 | 7.4
